Experimental data from patent US20240228518A1, “NOVEL ORGANOTIN SILICATE COMPOUNDS, PREPARATION METHODS THEREOF AND PHOTORESIST COMPOSITION CONTAINING THE SAME” (JSI SILICONE CO., priority 2022, published 2024).

Columns and labels:
[1] = Solubility experiment in various solvents; format: physicochemical
From the text: [Experimental Example 1] Solubility Experiment of tetrakis(triphenylstannyl) Silicate
For manufacturing a thin film including the tetrakis(triphenylstannyl) silicate compound prepared in Example 1, solubility in various solvents was experimented and is shown in the following Tables 2 and 3: […]

[2] = Stability in water (precipitation) of solution with acetic acid; format: physicochemical
Description: Since the photoresist composition included acetic acid, stability of tetrakis(triacetoxystannyl) silicate in water was able to be improved. When water was added at 5% to a 5% tetrakis(triacetoxystannyl) silicate solution, it was confirmed that precipitation occurred immediately. However, when acetic acid was added, precipitation was able to be prevented. It was confirmed that precipitation occurred after 3 minutes in a 10% acetic acid solution, after 3 hours in a 20% solution, and after 5 days in a 30% solution. Besides, the amount of precipitation was decreased as the acetic acid was added. Regarding a large amount of acetic acid, since a hydrolysis rate of an acetoxy group decreased according to le Chatelier's law, stability in water was improved.

In the case of `c1cc[c]([Sn]([O][Si]([O][Sn]([c]2ccccc2)([c]2ccccc2)[c]2ccccc2)([O][Sn]([c]2ccccc2)([c]2ccccc2)[c]2ccccc2)[O][Sn]([c]2ccccc2)([c]2ccccc2)[c]2ccccc2)([c]2ccccc2)[c]2ccccc2)cc1` [Example 1, tetrakis(triphenylstannyl) silicate], the Solubility ([1]; Chloroform) is reported as “highest solubilites and ◯”, the Solubility ([1]; Ethyl lactate (EL)) is reported as “Δ” and the Solubility ([1]; THF) is reported as “highest solubilites and ◯”. For the same molecule, the Solubility ([1]; gamma-Butyrolactone (GBL)) was “Δ”.
In the case of `CC(=O)[O][Sn]([O]C(C)=O)([O]C(C)=O)[O][Si]([O][Sn]([O]C(C)=O)([O]C(C)=O)[O]C(C)=O)([O][Sn]([O]C(C)=O)([O]C(C)=O)[O]C(C)=O)[O][Sn]([O]C(C)=O)([O]C(C)=O)[O]C(C)=O` [Example 14, tetrakis(triacetoxystannyl) silicate], the “Time until precipitation occurred” value ([2]; water added at 5% to 5% solution, no acetic acid) is reported as “immediately”, the “Time until precipitation occurred” value ([2]; water added, 10% acetic acid solution) is reported as 3 min and the “Time until precipitation occurred” value ([2]; water added, 20% acetic acid solution) is reported as 180 min. For the same molecule, the “Time until precipitation occurred” value ([2]; water added, 30% acetic acid solution) was 7200 min.
